Our source for the EC50 values is patent publication US20240270821A1, “GIP/GLP1/GCG TRI-RECEPTOR AGONISTS AND USES THEREOF” (priority 2023, published 2024).

Like-named read-outs stand apart in the source and are kept apart here. Starred links: 1 amine or outer side, 2 acyl side, 3 side chain; linkers in the order of their positions; H or OH if unused. Non-standard residues stand in square brackets, D forms with d. Residues, ends and D or L forms follow the SMILES beside them. Groups on a side chain read outwards from the residue. No end group written: not given here. *: point of attachment. C18 diacid = O=C(O)CCCCCCCCCCCCCCCCC(=O)*; αMePhe(2-F) = C[C@](N)(Cc1ccccc1F)C(=O)O; γGlu = O=C(O)[C@H](CCC(=O)[*:2])N[*:1]; αMe4Pal = C[C@](N)(Cc1ccncc1)C(=O)O; αMeY = C[C@](N)(Cc1ccc(O)cc1)C(=O)O; 4Pal = N[C@@H](Cc1ccncc1)C(=O)O; αMeL = CC(C)C[C@](C)(N)C(=O)O; αMeS = C[C@](N)(CO)C(=O)O; Orn = NCCC[C@H](N)C(=O)O; AEEA = NCCOCCOCC(=O)O; Aib = CC(C)(N)C(=O)O

What all share (type): cell-based
In assay [1] the target is T1, hGIPR (Homo sapiens, UniProt P48546).
T1 sequence (P48546 22-466): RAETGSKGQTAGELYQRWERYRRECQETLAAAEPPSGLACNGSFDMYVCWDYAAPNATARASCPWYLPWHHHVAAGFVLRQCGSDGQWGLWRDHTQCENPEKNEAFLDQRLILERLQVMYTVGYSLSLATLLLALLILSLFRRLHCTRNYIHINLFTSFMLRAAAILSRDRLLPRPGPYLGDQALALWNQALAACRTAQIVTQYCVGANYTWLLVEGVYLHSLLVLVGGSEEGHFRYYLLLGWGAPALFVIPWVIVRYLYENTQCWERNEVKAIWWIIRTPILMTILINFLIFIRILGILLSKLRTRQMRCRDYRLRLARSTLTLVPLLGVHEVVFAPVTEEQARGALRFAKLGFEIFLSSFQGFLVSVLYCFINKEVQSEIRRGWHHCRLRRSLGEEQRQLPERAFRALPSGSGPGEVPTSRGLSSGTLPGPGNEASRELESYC
The experiment in a line: Functional cAMP activity in the presence of 1% HSA. The settings on record: read-out: cAMP Rel EC50, hGIPR.

Assay [2] has as its target T2, hGLP-1R (Homo sapiens, UniProt P43220). The experiment in a line: Functional cAMP activity in the presence of 1% HSA. Particulars: read-out: cAMP Rel EC50, hGLP-1R.
In a further assay the target is human GcgR (Homo sapiens, UniProt P47871). The experiment in a line: Functional cAMP activity in the presence of 1% HSA. Particulars: read-out: cAMP Rel EC50, hGcgR.
Assay [3] concerns the target T1, hGIPR. Put plainly: Functional cAMP activation in the presence of 0.1% casein (no HSA). Particulars: read-out: Relative cAMP EC50, hGIPR.
The target of assay [4] is T2, hGLP-1R. Described as above. Particulars: read-out: Relative cAMP EC50, hGLP-1R.
Method: After a 30-minute incubation at 37° C., the resulting increase in intracellular cAMP is quantitatively determined using the CisBio CAMP Dynamic 2 HTRF Assay Kit (62AM4PEJ). Briefly, cAMP levels within the cell are detected by adding the cAMP-d2 conjugate in cell lysis buffer followed by the antibody anti-cAMP-Eu^3+-Cryptate, also in cell lysis buffer.
Intracellular cAMP levels are determined by extrapolation using a standard curve. Dose response curves of compounds are plotted as the percentage of stimulation normalized to minimum (buffer only) and maximum (maximum concentration of each control ligand) values and analyzed using a four parameter non-linear regression fit with a variable slope (Genedata Screener 13). EC50 is the concentration of compound causing half-maximal simulation in a dose response curve. Each relative EC50 value for the Geometric mean calculation is determined from a curve fitting.
The target in a further assay is hGcgR (Homo sapiens, UniProt P47871). The description is as above. Particulars: read-out: Relative cAMP EC50, hGcgR.
Setting [5] is: in the presence of 0.1% casein (no HSA), geometric mean.
Where [6] appears, read: 0.1% casein, no HSA, geometric mean.
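For Relative cAMP EC50, hGIPR in this document: intracellular cAMP rise after 30 min at 37 °C read by HTRF against a standard curve, scaled between buffer alone (0%) and top control ligand concentration (100%), four-parameter fit.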
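For Relative cAMP EC50, hGLP-1R in this document: intracellular cAMP rise after 30 min at 37 °C read by HTRF, normalized between buffer only (0%) and maximal control ligand (100%), four-parameter variable-slope fit.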
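For Relative cAMP EC50, hGcgR in this document: intracellular cAMP rise after 30 min at 37 °C, read by HTRF against a cAMP standard curve, scaled from buffer only (0%) to maximal control ligand response (100%).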

Sequence of hGcgR (P47871 26-477): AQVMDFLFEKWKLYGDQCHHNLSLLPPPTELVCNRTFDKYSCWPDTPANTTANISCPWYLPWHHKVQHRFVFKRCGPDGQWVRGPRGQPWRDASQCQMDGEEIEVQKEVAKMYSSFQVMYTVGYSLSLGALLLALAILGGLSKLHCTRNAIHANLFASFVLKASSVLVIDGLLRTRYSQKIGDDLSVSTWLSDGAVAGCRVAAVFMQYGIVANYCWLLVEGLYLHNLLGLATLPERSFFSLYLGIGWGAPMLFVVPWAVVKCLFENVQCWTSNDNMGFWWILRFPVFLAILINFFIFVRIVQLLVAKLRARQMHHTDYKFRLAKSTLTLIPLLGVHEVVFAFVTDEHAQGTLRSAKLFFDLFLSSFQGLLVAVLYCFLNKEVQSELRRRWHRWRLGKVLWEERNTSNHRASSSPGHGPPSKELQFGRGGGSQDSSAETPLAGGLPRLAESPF
Sequence of human GcgR (P47871 26-477): as above
T2 sequence (P43220 24-463): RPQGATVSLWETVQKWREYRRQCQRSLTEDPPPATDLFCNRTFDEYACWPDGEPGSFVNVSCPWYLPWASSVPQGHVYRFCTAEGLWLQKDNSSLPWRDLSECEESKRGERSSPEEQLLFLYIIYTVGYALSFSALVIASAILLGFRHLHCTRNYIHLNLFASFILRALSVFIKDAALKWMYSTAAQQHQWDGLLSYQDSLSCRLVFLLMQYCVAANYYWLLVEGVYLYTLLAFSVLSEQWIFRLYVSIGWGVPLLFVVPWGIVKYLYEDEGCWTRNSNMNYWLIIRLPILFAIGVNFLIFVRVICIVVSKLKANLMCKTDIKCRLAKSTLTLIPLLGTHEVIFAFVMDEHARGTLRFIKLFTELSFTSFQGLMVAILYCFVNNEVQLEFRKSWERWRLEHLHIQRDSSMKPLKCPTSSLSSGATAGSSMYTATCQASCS

As a reminder, the EC50 is the concentration that produces a half-maximal response. Turning to `CC[C@H](C)[C@H](NC(=O)[C@H](Cc1ccccc1)NC(=O)[C@H](CCCN)NC(=O)C(C)(C)NC(=O)[C@H](CCC(N)=O)NC(=O)[C@H](C)NC(=O)[C@H](CCCCNC(=O)COCCOCCNC(=O)CC[C@H](NC(=O)CC[C@H](NC(=O)CCCCCCCCCCCCCCCCC(=O)O)C(=O)O)C(=O)O)NC(=O)[C@H](CCCN)NC(=O)[C@H](CC(=O)O)NC(=O)[C@H](CC(C)C)NC(=O)[C@](C)(CC(C)C)NC(=O)[C@@H](NC(=O)[C@](C)(CO)NC(=O)[C@H](Cc1ccncc1)NC(=O)[C@H](CC(=O)O)NC(=O)[C@H](CO)NC(=O)[C@@H](NC(=O)[C@](C)(Cc1ccccc1F)NC(=O)[C@@H](NC(=O)CNC(=O)[C@H](CCC(N)=O)NC(=O)C(C)(C)NC(=O)[C@@H](N)Cc1ccc(O)cc1)[C@@H](C)O)[C@@H](C)O)[C@@H](C)CC)C(=O)N[C@H](CCC(=O)O)C(=O)N[C@@](C)(Cc1ccc(O)cc1)C(=O)N[C@@H](CC(C)C)C(=O)N[C@@H](CC(C)C)C(=O)N[C@@H](CCC(=O)O)C(=O)NCC(=O)NCC(=O)N1CCC[C@H]1C(=O)N[C@@H](CO)C(=O)N[C@@H](CO)C(=O)NCC(=O)N[C@@H](CCC(=O)O)C(=O)N1CCC[C@H]1C(=O)N1CCC[C@H]1C(=O)N1CCC[C@H]1C(=O)N[C@@H](CO)C(N)=O` [Example 376] (H-Y[Aib]QGT[αMePhe(2-F)]TSD[4Pal][αMeS]I[αMeL]LD[Orn]K([AEEA-γGlu-γGlu-C18 diacid])AQ[Aib][Orn]FI[dE][αMeY]LLEGGPSSGEPPPS-NH2), the EC50 on hGIPR [1] came out at 5.42 nM; at hGLP-1R [2] it was 26 nM; at human GcgR it was 115 nM; at hGIPR [3] (setting [5]), 0.0354 nM; on hGLP-1R [4] (setting [5]), 0.445 nM; at hGcgR (setting [5]), 1.71 nM.
Regarding “Y[Aib]Q[dA]T[αMePhe(2-F)]TSD[4Pal][αMeS]I[αMeL]LD[Orn]K([AEEA-γGlu-C18 diacid])AQ[Aib]EFI[dE][αMeY]LIEGGPSSGAPPPSGS-NH2 [Example 1203]”, the EC50 at hGIPR [1] was 8.5 nM; on hGLP-1R [2] it was 38.9 nM; at human GcgR, 436 nM; on hGIPR [3] (setting [6]), 0.0774 nM; on hGLP-1R [4] (setting [6]), 0.292 nM; at hGcgR (setting [6]) it was 2.58 nM.
On to “H-Y[Aib]QGT[αMePhe(2-F)]TSD[4Pal][αMeS]I[αMeL]LD[Orn]K([AEEA-γGlu-C18 diacid])AQ[αMe4Pal]EFI[dE][αMeY]LIEGGPSSGAPPPSGGGEEE-NH2 [Example 1215]”, for which the EC50 at hGIPR [1] was 0.937 nM; on hGLP-1R [2] it was 58.5 nM; at human GcgR it was 272 nM; at hGIPR [3] (setting [6]), 0.0106 nM; on hGLP-1R [4] (setting [6]) it was 0.668 nM; on hGcgR (setting [6]) it was 2.09 nM.
As to “Y[Aib]QGT[αMePhe(2-F)]TSD[4Pal]SI[αMeL]LD[Orn]K([AEEA-γGlu-C18 diacid])AQ[αMe4Pal][Orn]FI[dE][αMeY]LIEGGPSSGAPPPEGGGE-NH2 [Example 758]”, the EC50 was found to be 1.59 nM on hGIPR [1]; 31.3 nM at hGLP-1R [2]; 388 nM on human GcgR; 0.0212 nM on hGIPR [3]; 0.195 nM at hGLP-1R [4]; 3.99 nM at hGcgR.
Consider “H-Y[Aib]QGTFTSD[4Pal]S[Orn][αMeL]LDKK([γGlu-γGlu-C18 diacid])AQ[αMe4Pal]AFIE[αMeY]LIEGGPSSGAPPPSGSEE-NH2 [Example 967]”, for which the EC50 on hGIPR [1] was determined as 39.5 nM; on hGLP-1R [2], 345 nM; on human GcgR it was 508 nM; at hGIPR [3] (setting [5]), 0.205 nM; on hGLP-1R [4] (setting [5]) it was 1.75 nM; on hGcgR (setting [5]), 1.94 nM.
For `CC[C@H](C)[C@H](NC(=O)[C@H](Cc1ccccc1)NC(=O)[C@H](C)NC(=O)C(C)(C)NC(=O)[C@H](CCC(N)=O)NC(=O)[C@H](C)NC(=O)[C@H](CCCCNC(=O)COCCOCCNC(=O)COCCOCCNC(=O)CC[C@H](NC(=O)CCCCCCCCCCCCCCCCCCC(=O)O)C(=O)O)NC(=O)[C@H](CCCCN)NC(=O)[C@H](CC(=O)O)NC(=O)[C@H](CC(C)C)NC(=O)[C@](C)(CC(C)C)NC(=O)[C@H](CCCN)NC(=O)[C@H](CO)NC(=O)[C@H](Cc1ccccc1)NC(=O)[C@H](CC(=O)O)NC(=O)[C@H](CO)NC(=O)[C@@H](NC(=O)[C@H](Cc1ccccc1)NC(=O)[C@@H](NC(=O)CNC(=O)[C@H](CCC(N)=O)NC(=O)C(C)(C)NC(=O)[C@@H](N)Cc1ccc(O)cc1)[C@@H](C)O)[C@@H](C)O)C(=O)N[C@@H](CCC(=O)O)C(=O)N[C@@H](Cc1ccc(O)cc1)C(=O)N[C@@H](CC(C)C)C(=O)N[C@@H](CC(C)C)C(=O)N[C@@H](CCC(=O)O)C(=O)N[C@H](C)C(=O)NCC(=O)N1CCC[C@H]1C(=O)N[C@@H](CO)C(=O)N[C@@H](CO)C(=O)NCC(=O)N[C@@H](C)C(=O)N1CCC[C@H]1C(=O)N1CCC[C@H]1C(=O)N1CCC[C@H]1C(=O)N[C@@H](CO)C(=O)N[C@@H](CCC(=O)O)C(=O)NCC(N)=O` [Example 72], the EC50 on hGIPR [1] stood at 56.7 nM; at hGLP-1R [2], 683 nM; at human GcgR, 1910 nM; on hGIPR [3] (setting [5]), 0.202 nM; on hGLP-1R [4] (setting [5]), 1.86 nM; at hGcgR (setting [5]), 5.48 nM.
Take “H-Y[Aib]QGT[αMePhe(2-F)]TSD[4Pal][αMeS]I[αMeL]LD[Orn]K([AEEA-γGlu-C18 diacid])AQ[αMe4Pal]EFI[dE][αMeY]LIEGGPPS[Aib][Orn]PPPEGE-NH2 [Example 1194]”: the EC50 worked out at 0.759 nM on hGIPR [1]; 57.4 nM at hGLP-1R [2]; 215 nM on human GcgR; 0.00725 nM on hGIPR [3] (setting [6]); 0.51 nM on hGLP-1R [4] (setting [6]); 2.02 nM on hGcgR (setting [6]).
Take “H-Y[Aib]QGTFTSD[4Pal]SQ[αMeL]LDKK([γGlu-γGlu-γGlu-C18 diacid])AQ[αMe4Pal]AFIEYLIE[Aib]GPSSGAPPPSGS-NH2 [Example 859]”: the EC50 stood at 32.3 nM on hGIPR [1]; 543 nM on hGLP-1R [2]; 2250 nM at human GcgR; 0.12 nM at hGIPR [3] (setting [5]); 2.38 nM on hGLP-1R [4] (setting [5]); 8.45 nM on hGcgR (setting [5]).
As to “H-Y[Aib]QGTFTSD[4Pal]S[Orn][αMeL]LDKK([γGlu-AEEA-γGlu-C18 diacid])AQ[αMe4Pal]AFIEYLIE[Aib]GPSSGAPPPSGS-NH2 [Example 868]”, the EC50 is 17.7 nM on hGIPR [1]; 822 nM on hGLP-1R [2]; 622 nM at human GcgR; 0.208 nM on hGIPR [3] (setting [5]); 5.82 nM on hGLP-1R [4] (setting [5]); 7.4 nM on hGcgR (setting [5]).
Regarding “H-Y[Aib]QGTFTSD[4Pal]SQ[αMeL]LDKK([Glu-γGlu-C18 diacid])AQ[αMe4Pal]AFIEYLIAGGPSSGAPPPSGEEE-NH2 [Example 1089]”, the EC50 was 34.6 nM at hGIPR [1]; 449 nM at hGLP-1R [2]; 2580 nM on human GcgR; 0.213 nM at hGIPR [3] (setting [5]); 2.96 nM on hGLP-1R [4] (setting [5]); 14 nM at hGcgR (setting [5]).
Take “H-Y[Aib]QGTFTSD[4Pal]SQ[αMeL]LDKK([AEEA-γGlu-C18 diacid])AQ[αMe4Pal]AFIEYLIE[Aib]GPSSGAPPPSGE-NH2 [Example 881]”: the EC50 at hGIPR [1] is 30.1 nM; on hGLP-1R [2] it was 321 nM; at human GcgR, 507 nM; at hGIPR [3] (setting [5]) it was 0.211 nM; on hGLP-1R [4] (setting [5]), 2.87 nM; on hGcgR (setting [5]), 4.09 nM.
“H-Y[Aib]QGT[αMePhe(2-F)]TSD[4Pal]SI[αMeL]LDKK([γGlu-γGlu-C18 diacid])AQ[Aib]AFIEYLEEGGPSSGEPPPSGEGE-NH2 [Example 625]”: the EC50 at hGIPR [1] worked out at 1.81 nM; at hGLP-1R [2], 72.1 nM; on human GcgR, 657 nM; at hGIPR [3], 0.0291 nM; at hGLP-1R [4], 1.16 nM; on hGcgR, 8.53 nM.
For the molecule “Y[Aib]QGT[αMePhe(2-F)]TSD[4Pal][αMeS]ILLD[Orn]K([γGlu-γGlu-C18 diacid])AQ[Aib][Orn]FI[dE][αMeY]LQEGGPSSGEPPPEGAE-NH2 [Example 546]”, the EC50 on hGIPR [1] is 11.9 nM; on hGLP-1R [2], 34.4 nM; on human GcgR, 225 nM; on hGIPR [3], 0.25 nM; at hGLP-1R [4] it was 0.517 nM; on hGcgR, 3.67 nM.
For “H-Y[Aib]QGTFTSDFS[Orn][αMeL]LDKK([AEEA-AEEA-γGlu-C18 diacid])AQ[Aib]AFIEYLLE[dA]GPSSGEPPPSGT-NH2 [Example 156]”, the EC50 at hGIPR [1] worked out at 25.8 nM; at hGLP-1R [2] it was 695 nM; at human GcgR, 1520 nM; at hGIPR [3] (setting [5]) it was 0.208 nM; on hGLP-1R [4] (setting [5]), 3.37 nM; on hGcgR (setting [5]) it was 3.62 nM.
